Measurements from paper PMC10973027 (Molecular Imaging and Biology, 2023).
Entries after “also recorded” stand apart in the source; their conditions may differ.

Tests used:
ASYN pathology = conditions: mouse model of PD, once-daily over 3 months; cited from earlier work
Caco-2 cell system = test system: Caco-2 cell system; parameters: method as in PMID 35959805; conditions: Caco-2, in vitro; cited from earlier work
[1] = Safety and tolerability in TM0017 (TEAEs, ECG, vital signs)
Method: Other safety variables recorded include changes in 12-lead electrocardiogram (ECG) assessment and changes in vital signs (heart rate, systolic blood pressure, diastolic blood pressure, respiratory rate, and body temperature). Vital signs were measured in supine position following 5 min of rest and clinically significant abnormalities (according to the investigator) were recorded as an AE. All ECG recordings were performed following 5 min of rest in the supine position, in triplicate, with ≥ 1 min between each recording. If any clinically significant abnormalities occurred, an ECG data specialist was to review the recordings.

[2] = Phase 1 PET-CT brain biodistribution study TM0017 (VT, K1, k2); assay type: in vivo, human
Method: A sample size of 2–10 participants was considered sufficient to meet the objectives, whilst limiting radiation exposure.
The preparation of radiopharmaceuticals and execution of PET-CT scans was performed by radiochemists, physicians, and technologists of Invicro (London, UK). Following local anesthesia, a catheter was inserted into the radial artery by an experienced physician; two venous catheters were also inserted. […] Upon administration, dynamic scanning started immediately and continued for 90 min.
Arterial input function data were acquired and processed for all PET scans.
Anatomical regions of interest (ROI) were defined via nonlinear deformation of a template MR image and associated neuroanatomical atlas, to match individual participants’ MR images. These ROI included, but were not limited to: parietal lobe, occipital lobe, frontal lobe, temporal lobe, striatum, cerebellum, thalamus, and the brain stem. Participants’ PET images were registered to their MR images, enabling the individualized ROI to be applied to the dynamic emission data to generate regional time activity curves (TACs). For additional information on the generation of regional TACs, see the electronic supplement.
Phase 1 PET Study in Healthy Male Participants (TM0017)
The TAC and total plasma data were fitted to a single compartment model to determine the influx and efflux constants K1 and k2. Because the plasma free fraction estimate is imprecise, we elected to fit the model using the total (free and bound) arterial concentration input function. The parameters of this model are related to the analogous parameters which would be estimated using an accurate estimate of the free arterial concentration using the equations below. We were able therefore to determine and present the K1 and estimated whole brain total distribution volume (VT), with relatively good repeatability between patients, and the equations below could also be used to relate the overall mean estimates back to the ideal total brain to free plasma minzasolmin (V’T) and unidirectional extraction Eu which can be calculated using the free fraction. The blood volume in the model was fixed at 5%. In this model, radiotracer which is free in tissue, non-specifically bound and specifically bound (i.e. to a target of interest) are lumped together in a single compartment, and so interchange between those states is assumed to be rapid.
The arterial input function used represents the total concentration of parent radiotracer in plasma, with no correction for plasma protein binding and the fitted and observed K1 from this model is lower than the rate of uptake from the free plasma concentration (K’1):
To calculate the Eu from the observed K1 from the model we then need to combine […]
The partition coefficient between total brain and total plasma concentration was determined from the fitted K1 and k2 parameters: […]
and the ratio of total concentration in brain to free concentration in plasma ( V’T) could be […]
Supplemental Fig. 1. Example of HPLC chromatograms (radioactive trace, top; UV trace, bottom) obtained during HPLC analysis of [11C-N-CH3]UCB2713 dose. The time delay

Plasma free fraction = assay type: in vitro ADME; conditions: human plasma
[3] = Plasma pharmacokinetics after single oral dose in TM0017; assay type: in vivo; conditions: male, human, TM0017, single oral 360 mg
[4] = parameters: method as in PMID 35959805; conditions: cited from earlier work
[5] = parameters: method as in PMID 35959805; conditions: UP0030 study participants, 2 h post dose; cited from earlier work
[6] = TM0017, N = 4, single oral dose 360 mg
[7] = UP0030, 90–450 mg single ascending dose

CCCC[C@H](Cc1c[nH]c2ccccc12)NC(=O)c1cnc(N2CCN(C)CC2)s1 [minzasolmin, N-[(1R)-1-(1H-indol-3-ylmethyl)pentyl]-2-(4-methylpiperazin-1-yl)thiazole-5-carboxamide]
tolerability (ASYN pathology): well-tolerated | permeability (Caco-2 cell system): high permeability | Any TEAEs [1, 6]: 3 (75) n (%) | Deaths [1, 6]: 0 n (%) | Discontinuations due to TEAEs [1, 6]: 0 n (%) | Drug-related TEAEs [1, 6]: 0 n (%) | Serious TEAEs [1, 6]: 0 n (%) | Severe TEAEs [1, 6]: 0 n (%) | TEAEs of special interest [1, 6]: 0 n (%) | ECG parameters, vital signs, laboratory parameters ([1]; TM0017, healthy male participants): No clinically relevant findings in ECG parameters or vital sign measurements; also recorded: no clinically relevant findings in laboratory parameters, vital signs, or ECG recordings | participants reporting TEAEs ([1]; TM0017 overall, three out of four participants): 75% | Kp ([2]; male, human, brain/plasma, intravenous, steady-state, from VT, read-out: Kp (total brain to total plasma concentration, partition coefficient)): ~0.5 | maximum projected human total brain concentration ([2]; minzasolmin 360 mg/day dose, with plasma concentrations of UP0077): up to 1273 ng/mL | fraction unbound (Plasma free fraction): ~0.025 | AUC ([3]; read-out: AUC GeoMean (time zero to infinity)): 13200 ng·h/mL | Cmax ([3]; read-out: Cmax GeoMean): 1580 ng/mL | half-life ([3]; read-out: apparent terminal elimination half-life (GeoMean) (converted)): 11.4 h | Tmax ([3]; read-out: tmax Median): 2 h | AUC GeoMean (time zero to infinity) [4, 7]: 3225 to 17040 ng·h/mL | Cmax GeoMean [4, 7]: 374 to 1806 ng/mL | tmax Median [4, 7]: 1.5 to 2 h | apparent terminal elimination half-life, GeoMean range ([4]; previous phase 1/1b studies): 9.3 to 13.1 h

CCCC[C@H](Cc1c[nH]c2ccccc12)NC(=O)c1cnc(N2CC[N+](C)([O-])CC2)s1 [N-oxide]
concentration in CSF, times lower than the parent minzasolmin concentration [5]: ~ 20 times
